Laboratory results reported in patent US9394282B2, “Pyrazole carboxamides as Janus kinase inhibitors” (Merck Sharp & Dohme Corp., priority 2011, dated 2016).

Target: JAK1 (Homo sapiens (Human), UniProt P23458)
Assay: Jak biochemical HTRF assay, JAK1
Settings: recombinant purified GST-tagged catalytic domain; HTRF format; [ATP] 31.8 μM
Description: Jak Biochemical HTRF Assay Protocol
Subsequent reagent additions employed an Agilent Bravo.

Chain of JAK1 (P23458 875-1153): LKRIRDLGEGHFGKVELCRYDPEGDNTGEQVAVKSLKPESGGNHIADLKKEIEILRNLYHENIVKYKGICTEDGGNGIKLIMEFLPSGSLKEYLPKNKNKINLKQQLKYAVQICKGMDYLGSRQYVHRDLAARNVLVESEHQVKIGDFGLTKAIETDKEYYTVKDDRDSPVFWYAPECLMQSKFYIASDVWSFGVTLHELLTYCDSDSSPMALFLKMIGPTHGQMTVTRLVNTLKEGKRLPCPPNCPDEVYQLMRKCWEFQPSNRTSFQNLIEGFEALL

Compound | IC50 [nM]
N#C[C@@H]1CCN(C(=O)OC2CCOCC2)CC1n1cc(C(N)=O)c(Nc2ccc(F)cc2)n1 (mixture of isomers) [Example 5-85, tetrahydro-2H-pyran-4-yl (3S,4R and 3R,4S)-3-{4-carbamoyl-3-[(4-fluorophenyl)amino]-1H-pyrazol-1-yl}-4-cyanopiperidine-1-carboxylate] | 6
N#C[C@H]1CS(=O)(=O)CC1n1cc(C(N)=O)c(Nc2ccnc(F)c2)n1 (mixture of isomers) [Example 8-8, 1-((3S,4S and 3R,4R)-4-cyano-1,1-dioxidotetrahydrothiophen-3-yl)-3-((2-fluoropyridin-4-yl)amino)-1H-pyrazole-4-carboxamide] | 5
N#C[C@@H]1CN(Cc2cocn2)CC[C@H]1n1cc(C(N)=O)c(Nc2ccc(F)cc2)n1 (racemic) [Example 6-25, 1-[(3R,4R and 3S,4S)-3-cyano-1-(1,3-oxazol-4-ylmethyl)piperidin-4-yl]-3-[(4-fluorophenyl)amino]-1H-pyrazole-4-carboxamide] | 6
N#C[C@@H]1CCOC[C@H]1n1cc(C(N)=O)c(Nc2cnc3cc(Cl)ccc3c2)n1 (single isomer, unassigned) [Example 9-21, 3-[(7-chloroquinolin-3-yl)amino]-1-[(3S,4R or 3R,4S)-4-cyanotetrahydro-2H-pyran-3-yl]-1H-pyrazole-4-carboxamide] | 21
N#C[C@@H]1CCN(Cc2cncs2)C[C@H]1n1cc(C(N)=O)c(Nc2ccc(F)cc2)n1 (racemic) [Example 7-1, 1-[(3S,4R and 3R,4S)-4-Cyano-1-(1,3-thiazol-5-ylmethyl)piperidin-3-yl]-3-[(4-fluorophenyl)amino]-1H-pyrazole-4-carboxamide] | 0.5
N#C[C@@H]1CN(Cc2cccc(F)n2)CC[C@H]1n1cc(C(N)=O)c(Nc2ccc(F)cc2)n1 (racemic) [Example 6-36, 1-{(3R,4R and 3S,4S)-3-cyano-1-[(6-fluoropyridin-2-yl)methyl]piperidin-4-yl}-3-[(4-fluorophenyl)amino]-1H-pyrazole-4-carboxamide] | 2
N#C[C@@H]1CCN(Cc2cccnc2F)C[C@H]1n1cc(C(N)=O)c(Nc2ccc(F)cc2)n1 (racemic) [Example 6-17, 1-{(3S,4R and 3R,4S)-4-cyano-1-[(2-fluoropyridin-3-yl)methyl]piperidin-3-yl}-3-[(4-fluorophenyl)amino]-1H-pyrazole-4-carboxamide] | 1
CC1=NOC(CN2CC[C@@H](n3cc(C(N)=O)c(Nc4ccc(F)cc4)n3)[C@H](C#N)C2)C1 (mixture of isomers) [Example 6-39, 1-{(3R,4R and 3S,4S)-3-cyano-1-[(3-methyl-4,5-dihydroisoxazol-5-yl)methyl]piperidin-4-yl}-3-[(4-fluorophenyl)amino]-1H-pyrazole-4-carboxamide] | 4
COC1CC(CN2CC[C@@H](C#N)[C@H](n3cc(C(N)=O)c(Nc4ccc(F)cc4)n3)C2)C1 (mixture of isomers) [Example 6-9, 1-{(3S,4R and 3R,4S)-4-cyano-1-[(3-methoxycyclobutyl)methyl]piperidin-3-yl}-3-[(4-fluorophenyl)amino]-1H-pyrazole-4-carboxamide] | 16
N#C[C@H]1CCOC[C@@H]1n1cc(C(N)=O)c(Nc2ccc(Cl)c(Cl)c2)n1 (single isomer, unassigned) [Example 9-10, 1-[(3R,4S or 3S,4R)-4-cyanotetrahydro-2H-pyran-3-yl]-3-[(3,4-dichlorophenyl)amino]-1H-pyrazole-4-carboxamide] | 26
N#C[C@@H]1CN(C(=O)OC2CCOC2)CC[C@H]1n1cc(C(N)=O)c(Nc2ccc(F)cc2)n1 (mixture of isomers) [Example 5-25, tetrahydrofuran-3-yl (3R,4R and 3S,4S)-4-{4-carbamoyl-3-[(4-fluorophenyl)amino]-1H-pyrazol-1-yl}-3-cyanopiperidine-1-carboxylate] | 12
Cc1ncc(CN2CC[C@@H](C#N)[C@H](n3cc(C(N)=O)c(Nc4ccc(F)cc4)n3)C2)s1 (racemic) [Example 6-18, 1-{(3S,4R and 3R,4S)-4-cyano-1-[(2-methyl-1,3-thiazol-5-yl)methyl]piperidin-3-yl}-3-[(4-fluorophenyl)amino]-1H-pyrdzole-4-carboxamide] | 1
N#C[C@@H]1CN(C(=O)OC2CCCC2)CC[C@H]1n1cc(C(N)=O)c(Nc2ccc(F)cc2)n1 (racemic) [Example 5-11, cyclopentyl (3R,4R and 3S,4S)-4-{4-carbamoyl-3-[(4-fluorophenyl)amino]-1H-pyrazol-1-yl}-3-cyanopiperidine-1-carboxylate] | 29
N#C[C@@H]1CN(C(=O)OC2CCCC2)CC[C@@H]1n1cc(C(N)=O)c(Nc2ccc(F)cc2)n1 (racemic) [Example 5-49, cyclopentyl (3R,4S and 3S,4R)-4-{4-carbamoyl-3-[(4-fluorophenyl)amino]-1H-pyrazol-1-yl}-3-cyanopiperidine-1-carboxylate] | 257

More lines, now with the values ahead:

IC50 [nM] | Compound
4 | N#C[C@@H]1CCN(C(=O)OCC(F)(F)F)CC1n1cc(C(N)=O)c(Nc2ccc(F)cc2)n1 (mixture of isomers) [Example 5-78, 2,2,2-trifluoroethyl (3S,4R and 3R,4S)-3-{4-carbamoyl-3-[(4-fluorophenyl)amino]-1H-pyrazol-1-yl}-4-cyanopiperidine-1-carboxylate]
200 | CCOC(=O)N1CC[C@H](n2cc(C(N)=O)c(Nc3ccc(F)cc3)n2)[C@H](C#N)C1 (racemic) [Example 5-44, ethyl (3R,4S and 3S,4R)-4-{4-carbamoyl-3-[(4-fluorophenyl)amino]-1H-pyrazol-1-yl}-3-cyanopiperidine-1-carboxylate]
625 | CC(C)(C)COC(=O)N1CC[C@H](n2cc(C(N)=O)c(Nc3ccc(F)cc3)n2)[C@H](C#N)C1 (racemic) [Example 5-50, 2,2-dimethylpropyl (3R,4S and 3S,4R)-4-{4-carbamoyl-3-[(4-fluorophenyl)amino]-1H-pyrazol-1-yl}-3-cyanopiperidine-1-carboxylate]
323 | CCOC(=O)COC(=O)N1CC[C@H](n2cc(C(N)=O)c(Nc3ccc(F)cc3)n2)[C@H](C#N)C1 (racemic) [Example 5-59, 2-ethoxy-2-oxoethyl (3R,4S and 3S,4R)-4-{4-carbamoyl-3-[(4-fluorophenyl)amino]-1H-pyrazol-1-yl}-3-cyanopiperidine-1-carboxylate]
3 | CCOC(=O)COC(=O)N1CC[C@@H](n2cc(C(N)=O)c(Nc3ccc(F)cc3)n2)[C@H](C#N)C1 (racemic) [Example 5-38, 2-ethoxy-2-oxoethyl (3R,4R and 3S,4S)-4-{4-carbamoyl-3-[(4-fluorophenyl)amino]-1H-pyrazol-1-yl}-3-cyanopiperidine-1-carboxylate]
1 | N#C[C@@H]1CCN(C(=O)OCCC2CC2)CC1n1cc(C(N)=O)c(Nc2ccc(F)cc2)n1 (mixture of isomers) [Example 5-91, 2-cyclopropylethyl (3S,4R and 3R,4S)-3-{4-carbamoyl-3-[(4-fluorophenyl)amino]-1H-pyrazol-1-yl}-4-cyanopiperidine-1-carboxylate]
15 | CC(C)(C#N)COC(=O)N1CC[C@@H](n2cc(C(N)=O)c(Nc3ccc(F)cc3)n2)[C@H](C#N)C1 (racemic) [Example 5-6, 2-cyano-2-methylpropyl (3R,4R and 3S,4S)-4-{4-carbamoyl-3-[(4-fluorophenyl)amino]-1H-pyrazol-1-yl}-3-cyanopiperidine-1-carboxylate]
